Values joined by “and” are separate entries in the source; they are usually repeats but may differ in a detail not shown here. Identical values can stand only once. Like-named read-outs stand apart in the source and are kept apart here.
Columns and labels:
[1] = system: dopamine (DA) in hypothalamus; test: Brain microdialysis: dopamine in hypothalamus; type: in vivo, rats; conditions: 25 mg/kg zonisamide
Text: (§1) 62 adult Sprague-Dawley male rats (Harland, Indianapolis) weighing 300-350 g were used in the following studies. The rats were quarantined for at least five days in group housing. Following the quarantine procedure, rats were maintained in individual cages. For surgical implantation with intracerebral guides, guides were inserted directly above either the hypothalamus (HT) (31 rats), or the medial prefrontal cortex (mPFC) (31 rats). Stereotaxic coordinates (Paxinos and Watson, 1986) provided below were used to position the guide cannulae and/or probes: Animals were anesthetiszed according using standard procedures. The head of each animal was shaved from the front of the eyes to the back of the skull. Shaved areas were disinfected, and the animals were placed in stereotaxic frame ear bars. The animal was aligned with the incisor bar. The animal's scalp was cut with a sharp #15 scalpel blade. If the bone began to bleed, bone wax was applied to the incision. Periosteal tissue was cleaned from the skull to the lateral ridges with a cotton swab, and clamps were used to pull the skin out of the way. The probe or guide was placed in the clamp, such that the angled outlet cannula of the microdialysis probe was angled towards the animal's tail. The target coordinates were calculated, and this point was marked on the skull. Two holes in opposing skull bones were drilled for bone anchor screws and thread screws. The dura was torn away with a sharp, pointed object. The guide cannulae were placed at the dorsal/ventral zero point. […] Using dental acrylic, the cannulae were cemented to the bone anchor screws. The cement was allowed to harden and the rodent was removed from the stereotaxic frame. The cranial and caudal aspects of the incision were sutured. The animals were allowed to recover for three to five days. Stylets in the guides were replaced with dialysis probes on the evening prior to study to allow for animal acclimation and to reestablish the integrity of the blood brain barrier. […] Rats were weighed pre-surgery, every 1-2 days post-surgery until time of microdialysis, and postmortem. Microdialysis probes used in the experiments described below were first soaked in standard Ringer's perfusion medium for 30 minutes. Inlet and outlet tubing was connected to each probe using flanged connectors. The outlet tubing was connected to a fraction collector, and the inlet was connected to and […] syringe drive. The probes were immersed in fresh Ringer's solution and flushed with Ringer's perfusion medium at a rate of 2 μl/min for 1 hour. The probe was then transferred to the intracerebral guide on the rat's skull. […] Water was added to obtain a final concentration of 0.3 mg/ml. […] Zonisamide was dissolved in DMSO. […] The final concentration of zonisamide was 7.5 mg/ml. The drug solution was maintained at 37° C. prior to injection. The rats were divided into ten test groups. Five animals were analyzed for each test group. The test groups were as follows: For the microdialysis experiments, perfusion consisted of 2 μl/min delivery of sterile standard Ringer's solution for intervals of 20 minutes. Final collection volumes were 40 μl. 30 μl samples were analyzed for each analyte: DA, NE, 5HT. 12 pre-dose samples and 12 post dose samples were collected every 20 minutes for a duration of 4 hours, both pre-dose and post-dose. Six samples from the pre-dose and post-dose collections were analyzed for norepinephrine. The remaining six samples from the pre-dose and post-dose collections were analyzed for both dopamine and serotonin. Samples were chilled to -80° C. immediately following collection. The samples were analyzed using liquid chromatography with electrochemical detection using conventional techniques. See, e.g., Huang, T., R. et al. (1994) New […] Microbore Columns for Liquid Chromatography. Current Separations 12(4): 191-195. […] Concentrations of each compound are expressed as % baseline.

[2] = system: psychotic patients (bipolar manic state, schizoaffective manic state, schizophrenic excitement); conditions: cited from earlier work; for patients showing remarkable global improvement: addition of zonisamide
[3] = patients presenting with primary obesity; cited from earlier work
[4] = system: serotonin (5HT) in hypothalamus; test: Brain microdialysis: serotonin in hypothalamus; type: in vivo, rats; conditions: 25 mg/kg zonisamide
Text: as §1

[5] = system: norepinephrine (NE) in hypothalamus; test: Brain microdialysis: norepinephrine in hypothalamus; type: in vivo, rats; conditions: 25 mg/kg zonisamide
Text: as §1

[6] = system: serotonin (5HT) in medial prefrontal cortex; test: Brain microdialysis: serotonin in mPFC; type: in vivo, rats; conditions: 25 mg/kg zonisamide
Text: as §1

carbonic anhydrase = conditions: cited from earlier work
[7] = system: norepinephrine (NE) in medial prefrontal cortex; test: Brain microdialysis: norepinephrine in mPFC; type: in vivo, rats; conditions: 25 mg/kg zonisamide
Text: as §1

[8] = system: dopamine (DA) in medial prefrontal cortex; test: Brain microdialysis: dopamine in mPFC; type: in vivo, rats; conditions: 25 mg/kg zonisamide
Text: as §1

## NS(=O)(=O)Cc1noc2ccccc12 [zonisamide]
[1]; 3 HOUR AVE
  Dopamine concentrations in hypothalamus: 104.3854 % baseline and 105.438 % baseline
[1]; 40 min post dose
  Dopamine concentrations in hypothalamus: 121.635 % baseline
[1]; 80 min post dose
  Dopamine concentrations in hypothalamus: 72.946 % baseline
[1]; 120 min post dose
  Dopamine concentrations in hypothalamus: 91.707 % baseline
[1]; 160 min post dose
  Dopamine concentrations in hypothalamus: 66.181 % baseline
[1]; 200 min post dose
  Dopamine concentrations in hypothalamus: 143.010 % baseline
[1]; 240 min post dose
  Dopamine concentrations in hypothalamus: 123.012 % baseline
[1]; -20 min pre dose
  Dopamine concentrations in hypothalamus: 142.394 % baseline
[1]; -60 min pre dose
  Dopamine concentrations in hypothalamus: 56.252 % baseline
[1]; -100 min pre dose
  Dopamine concentrations in hypothalamus: 101.354 % baseline
[2]; all the patients (24)
  patients showing remarkable global improvement: Approximately 25%
  patients with more than moderate global improvement: Approximately 71%
[2]; bipolar group
  patients with more than moderate global improvement: ~80%
[2]; bipolar manic patients
  patients showing remarkable global improvement: ~33%
[3]
  weight loss: significant weight loss
[4]; 3 HOUR AVE
  Serotonin concentrations in hypothalamus: 96.664 % baseline and 96.6637 % baseline
[4]; 40 min post dose
  Serotonin concentrations in hypothalamus: 139.708 % baseline
[4]; 80 min post dose
  Serotonin concentrations in hypothalamus: 88.171 % baseline
[4]; 120 min post dose
  Serotonin concentrations in hypothalamus: 87.586 % baseline
[4]; 160 min post dose
  Serotonin concentrations in hypothalamus: 64.925 % baseline
[4]; 200 min post dose
  Serotonin concentrations in hypothalamus: 98.920 % baseline
[4]; 240 min post dose (Table 7)
  Serotonin concentrations in hypothalamus: 100.672 % baseline
[4]; +220 min post dose
  Serotonin concentrations in hypothalamus: 100.672 % baseline
[4]; -20 min pre dose
  Serotonin concentrations in hypothalamus: 133.061 % baseline
[4]; -60 min pre dose
  Serotonin concentrations in hypothalamus: 79.388 % baseline
[4]; -100 min pre dose
  Serotonin concentrations in hypothalamus: 87.552 % baseline
[5]; 3 HOUR AVE
  Norepinephrine concentrations in hypothalamus: 124.221 % baseline and 124.272 % baseline
[5]; 20 min post dose
  Norepinephrine concentrations in hypothalamus: 194.380 % baseline
[5]; 60 min post dose
  Norepinephrine concentrations in hypothalamus: 151.267 % baseline
[5]; 100 min post dose
  Norepinephrine concentrations in hypothalamus: 101.287 % baseline
[5]; 140 min post dose
  Norepinephrine concentrations in hypothalamus: 99.489 % baseline
[5]; 180 min post dose
  Norepinephrine concentrations in hypothalamus: 102.237 % baseline
[5]; 220 min post dose
  Norepinephrine concentrations in hypothalamus: 91.722 % baseline
[5]; -40 min pre dose
  Norepinephrine concentrations in hypothalamus: 111.356 % baseline
[5]; -80 min pre dose
  Norepinephrine concentrations in hypothalamus: 88.184 % baseline
[5]; -120 min pre dose
  Norepinephrine concentrations in hypothalamus: 100.460 % baseline
[6]; 3 HOUR AVE
  Serotonin concentrations in mPFC: 77.954 % baseline and 77.9543 % baseline
[6]; 40 min post dose
  Serotonin concentrations in mPFC: 96.932 % baseline
[6]; 80 min post dose
  Serotonin concentrations in mPFC: 74.461 % baseline
[6]; 120 min post dose
  Serotonin concentrations in mPFC: 60.557 % baseline
[6]; 160 min post dose
  Serotonin concentrations in mPFC: 82.729 % baseline
[6]; 200 min post dose
  Serotonin concentrations in mPFC: 89.529 % baseline
[6]; 240 min post dose
  Serotonin concentrations in mPFC: 63.518 % baseline
[6]; -20 min pre dose
  Serotonin concentrations in mPFC: 107.652 % baseline
[6]; -60 min pre dose
  Serotonin concentrations in mPFC: 119.648 % baseline
[6]; -100 min pre dose
  Serotonin concentrations in mPFC: 72.700 % baseline
Carbonic anhydrase
  inhibitory effect on carbonic anhydrase: weak inhibitory effect
[7]; 3 HOUR AVE
  Norepinephrine concentrations in mPFC: 114.112 % baseline and 114.142 % baseline
[7]; 20 min post dose
  Norepinephrine concentrations in mPFC: 164.376 % baseline
[7]; 60 min post dose
  Norepinephrine concentrations in mPFC: 102.033 % baseline
[7]; 100 min post dose
  Norepinephrine concentrations in mPFC: 105.920 % baseline
[7]; 140 min post dose
  Norepinephrine concentrations in mPFC: 102.114 % baseline
[7]; 180 min post dose
  Norepinephrine concentrations in mPFC: 115.233 % baseline
[7]; 220 min post dose
  Norepinephrine concentrations in mPFC: 95.176 % baseline
[7]; -40 min pre dose
  Norepinephrine concentrations in mPFC: 101.451 % baseline
[7]; -80 min pre dose
  Norepinephrine concentrations in mPFC: 106.249 % baseline
[7]; -120 min pre dose
  Norepinephrine concentrations in mPFC: 92.300 % baseline
[8]; 3 HOUR AVE
  Dopamine concentrations in mPFC: 117.183 % baseline
[8]; 40 min post dose
  Dopamine concentrations in mPFC: 166.688 % baseline
[8]; 80 min post dose
  Dopamine concentrations in mPFC: 86.224 % baseline
[8]; 120 min post dose
  Dopamine concentrations in mPFC: 111.764 % baseline
[8]; 160 min post dose
  Dopamine concentrations in mPFC: 109.627 % baseline
[8]; 200 min post dose
  Dopamine concentrations in mPFC: 94.060 % baseline
[8]; 240 min post dose
  Dopamine concentrations in mPFC: 134.732 % baseline
[8]; -20 min pre dose
  Dopamine concentrations in mPFC: 98.672 % baseline
[8]; -60 min pre dose
  Dopamine concentrations in mPFC: 87.652 % baseline
[8]; -100 min pre dose
  Dopamine concentrations in mPFC: 113.677 % baseline
